Experimental data as given in patent US20200017496A1 (priority 2017, published 2020).

Tests used:
Test in all cases: MIC of compounds alone and combined with antibacterials, broth microdilution (CLSI)
Format in all cases: cell-based
[1] = system: Enterobacter cloacae (ECL) isolates
Summary of the method: (§1)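 Log-phase isolates at final 5·10^5 CFU/mL in cation-adjusted Mueller-Hinton broth, incubated 16-20 h at 35° C in ambient air. MIC read visually as lowest concentration preventing growth, for compound alone and for antibacterial at each compound concentration.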

[2] = system: Serratia marcescens (SMA) isolates
Summary of the method: as §1

[3] = system: Klebsiella pneumoniae (KPN) isolates; conditions: alone
Summary of the method: as §1

[4] = system: Citrobacter freundii (CFR) isolates
Summary of the method: as §1

Structure (SMILES): NC(=O)[C@@H]1CC[C@@H]2CN1C(=O)N2OC(F)(F)C(=O)[O-].[Na+] [EA1]
- MIC ([1]; ECL 2185D, alone): 16 µg/mL
- MIC ([1]; ECL 190310, alone): 32 µg/mL
- MIC ([1]; ECL 190408, alone): >128 µg/mL
- MIC ([1]; ECL 200138, alone): >32 µg/mL
- MIC ([1]; ECL 200322, alone): 16 µg/mL
- MIC ([1]; ECL 260033, alone): 16 µg/mL
- MIC ([1]; ECL 260253, alone): >32 µg/mL
- MIC ([1]; ECL 260323, alone): >32 µg/mL
- MIC ([1]; ECL 260508, alone): >32 µg/mL
- MIC ([1]; ECL NEM146383, alone): 32 µg/mL
- MIC ([1]; ECL P99, alone): 16 µg/mL
- MIC ([1]; ECL UFR12, alone): 32 µg/mL
- MIC ([1]; ECL UFR13, alone): 32 µg/mL
- MIC ([1]; ECL UFR14, alone): >32 µg/mL
- MIC ([1]; ECL UFR60, alone): 32 µg/mL
- MIC ([1]; ECL UFR70, alone): 32 µg/mL
- MIC ([1]; ECL UFR84, alone): >32 µg/mL
- MIC ([1]; ECL UFR85, alone): >32 µg/mL
- MIC ([1]; ECL UFR194, alone): >32 µg/mL
- MIC ([1]; ECL UFR200, alone): >32 µg/mL
- MIC ([1]; strain ECL UFR195, compound alone): >32 µg/mL
- MIC ([1]; strain ECL UFR196, compound alone): >32 µg/mL
- MIC ([1]; strain ECL UFR197, compound alone): 16 µg/mL
- MIC ([1]; strain ECL UFR198, compound alone): >32 µg/mL
- MIC ([2]; SMA UFR30, alone): >32 µg/mL
- MIC ([2]; SMA UFR134, alone): >32 µg/mL
- MIC ([2]; SMA UFR135, alone): >32 µg/mL
- MIC ([2]; SMA UFR136, alone): >32 µg/mL
- MIC ([2]; SMA UFR137, alone): >32 µg/mL
- MIC ([2]; SMA UFR138, alone): >32 µg/mL
- MIC ([2]; SMA UFR139, alone): >32 µg/mL
- MIC ([2]; SMA UFR141, alone): >32 µg/mL
- MIC ([2]; SMA UFR142, alone): >32 µg/mL
- MIC ([2]; SMA UFR143, alone): 64 µg/mL
- MIC ([2]; SMA UFR239, alone): >32 µg/mL
- MIC ([2]; strain SMA UFR238, compound alone): >32 µg/mL
- MIC ([3]; KPN 6299): >32 µg/mL
- MIC ([3]; KPN 110376): >32 µg/mL
- MIC ([3]; KPN 131119): >32 µg/mL
- MIC ([3]; KPN 140513): >32 µg/mL
- MIC ([3]; KPN 160143): >32 µg/mL
- MIC ([3]; KPN 190128): >32 µg/mL
- MIC ([3]; KPN 190270): >32 µg/mL
- MIC ([3]; KPN 190425): >32 µg/mL
- MIC ([3]; KPN 190551): >32 µg/mL
- MIC ([3]; KPN 200047): >32 µg/mL
- MIC ([3]; KPN 200327): >32 µg/mL
- MIC ([3]; KPN 260251): >32 µg/mL
- MIC ([3]; KPN 260252): >32 µg/mL
- MIC ([3]; KPN 260376): >32 µg/mL
- MIC ([3]; KPN 270077): >32 µg/mL
- MIC ([3]; KPN 700603): >32 µg/mL
- MIC ([3]; KPN ARA): >32 µg/mL
- MIC ([3]; KPN BAA-1898): >32 µg/mL
- MIC ([3]; KPN LIB): >32 µg/mL
- MIC ([3]; KPN UFR22_O): >32 µg/mL
- MIC ([3]; KPN UFR23): >32 µg/mL
- MIC ([3]; KPN UFR24): >32 µg/mL
- MIC ([3]; KPN UFR25): >32 µg/mL
- MIC ([3]; KPN UFR27): >32 µg/mL
- MIC ([3]; KPN UFR28): >32 µg/mL
- MIC ([3]; KPN UFR65): >32 µg/mL
- MIC ([3]; KPN UFR66): >32 µg/mL
- MIC ([3]; KPN UFR67): >32 µg/mL
- MIC ([3]; KPN UFR68): >32 µg/mL
- MIC ([3]; KPN UFR76): >32 µg/mL
- MIC ([3]; KPN UFR77): >32 µg/mL
- MIC ([3]; KPN UFR78): >32 µg/mL
- MIC ([3]; KPN UFR79): >32 µg/mL
- MIC ([3]; KPN UFR80): >32 µg/mL
- MIC ([3]; KPN UFR81): >32 µg/mL
- MIC ([3]; KPN UFR215): >32 µg/mL
- MIC ([3]; KPN UFR216): >32 µg/mL
- MIC ([3]; KPN UFR217): >32 µg/mL
- MIC ([3]; KPN UFR219): >32 µg/mL
- MIC ([3]; KPN UFR220): >32 µg/mL
- MIC ([3]; KPN UFR221): >32 µg/mL
- MIC ([3]; KPN UFR222): >32 µg/mL
- MIC ([3]; KPN UFR227O): >32 µg/mL
- MIC ([4]; CFR UFR10, alone): >32 µg/mL
- MIC ([4]; CFR UFR11, alone): 16 µg/mL
- MIC ([4]; CFR UFR83, alone): >32 µg/mL
- MIC ([4]; CFR UFR146, alone): 64 µg/mL
- MIC ([4]; CFR UFR248, alone): >32 µg/mL
- MIC ([4]; CFR UFR249, alone): >32 µg/mL
- MIC ([4]; CFR UFR250, alone): >32 µg/mL
- MIC ([4]; strain CFR UFR253, compound alone): 32 µg/mL
- MIC ([4]; strain CFR UFR254, compound alone): 32 µg/mL
